pEC50, pIC50: −log10 of the molar value. Like-named read-outs stand apart in the source and are kept apart here.
What was measured:
[1] = system: TLR2 induced IL-6 in peripheral blood mononuclear cells (PBMCs); experiment: PBMC TLR2 Induced IL-6 Assay; format: cell-based, human; settings: human PBMCs, 10 μg/ml lipoteichoic acid for 5 hours, IL-6 by ELISA; for pIC50: value without asterisk, read-out: Cell IC50; for pEC50: EC50 determinations are indicated with an asterisk, read-out: Cell EC50 (asterisk)
How it was run: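 IL-6 ELISA of supernatants after a 5 h challenge with the TLR2 agonist lipoteichoic acid (10 μg/ml). Before stimulation, human PBMCs (250000 cells/well; RPMI, 10% heat-inactivated FCS) received compound for 30 min at 37° C. Values given as IC50 or EC50.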

[2] = biological target: IRAK4 (Homo sapiens (Human), UniProt Q9NWZ3); experiment: IRAK4 Inhibition Assay; format: biochemical; settings: ATP 500 μM; IRAK4 0.6 nM; 60 min at room temperature
Chain of IRAK4 (Q9NWZ3 whole entry, species assumed): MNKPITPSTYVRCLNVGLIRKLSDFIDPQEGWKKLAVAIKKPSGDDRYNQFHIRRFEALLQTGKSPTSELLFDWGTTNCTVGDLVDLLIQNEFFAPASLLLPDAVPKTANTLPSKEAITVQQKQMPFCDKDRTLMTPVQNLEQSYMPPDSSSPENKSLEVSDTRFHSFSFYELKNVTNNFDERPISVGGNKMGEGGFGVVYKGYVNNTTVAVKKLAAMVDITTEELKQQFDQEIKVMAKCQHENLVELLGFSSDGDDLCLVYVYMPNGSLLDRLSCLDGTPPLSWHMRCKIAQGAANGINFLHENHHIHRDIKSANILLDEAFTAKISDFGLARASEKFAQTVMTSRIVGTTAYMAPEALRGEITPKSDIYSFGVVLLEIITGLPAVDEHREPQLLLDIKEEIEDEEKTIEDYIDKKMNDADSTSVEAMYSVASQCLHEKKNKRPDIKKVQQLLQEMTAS
Experimental: The assays were performed in U-bottom 384-well plates. […] The reaction was initiated by the combination of IRAK4 with substrates and test compounds. The reaction was incubated at room temperature for 60 min. and terminated by adding 45 μL of 35 mM EDTA to each sample. The reaction mixture was analyzed on the Caliper LABCHIP® 3000 (Caliper, Hopkinton, Mass.) by electrophoretic separation of the fluorescent substrate and phosphorylated product.

| pIC50 [2] | SMILES | pIC50 ([1]; Homo sapiens, PBMC, 5 h) | pEC50 [1] | pIC50 [1] | pEC50 ([1]; Homo sapiens, PBMC, 5 h) |
| --- | --- | --- | --- | --- | --- |
| 8.24 | O=C(NC[C@@H](F)CO)c1cnc(Nc2ccc3ncsc3c2)cc1NC1CCCC1O (some centres unmarked) [Example 337] | 6.10 |  |  |  |
| 8.49 | Cc1nc2cc(F)c(Nc3cc(NC4CCCC4F)c(C(=O)NC[C@@H](F)C(C)(C)O)cn3)cc2s1 (some centres unmarked) [Example 347] | 6.49 |  |  |  |
| 8.34 | CC(C)(O)[C@H](F)CNC(=O)c1cnc(Nc2ccc3nccnc3c2)cc1NC1CCCC1(F)F (some centres unmarked) [Example 359] | 6.73 |  |  |  |
| 8.00 | CC(C)Nc1cc(Nc2ccc3ncsc3c2)ncc1C(=O)N[C@H]1CC[C@H](C(=O)NC2(C#N)CC2)C1 [Example 222] | 6.16 |  |  |  |
| 8.15 | CC(C)(O)[C@H](F)CNC(=O)c1cnc(Nc2ccc3ncsc3c2)cc1N[C@H]1CC[C@H](N)CC1 [Example 61] | 6.59 |  |  |  |
| 8.36 | CC(C)Nc1cc(Nc2ccc3ncsc3c2)ncc1C(=O)NCC[C@@H](C)NC(=O)c1ccccc1 [Example 185] | 6.21 |  |  |  |
| 8.07 | CC(C)Nc1cc(Nc2ccc3ncsc3c2)ncc1C(=O)NC1CCc2nc(N)sc2C1 (centres unmarked) [Example 521] | 5.63 |  |  |  |
| 8.30 | CC(C)(O)C1CCC(NC(=O)c2cnc(Nc3ccc4ncsc4c3)cc2NC2CCCOC2)CC1 (centres unmarked) [Example 491] |  | 6.55 |  |  |
| 8.28 | CC(C)Nc1cc(Nc2ccc3ncsc3c2)ncc1C(=O)NC[C@@H](F)C(O)C1CC1 (some centres unmarked) [Example 15] | 6.27 |  |  |  |
| 7.94 | CC(C)(C)Nc1cc(Nc2ccc3ncsc3c2)ncc1C(=O)NC[C@@H](F)C(C)(C)O [Example 83] | 6.88 |  |  |  |
| 8.37 | CCC(C)Nc1cc(Nc2ccn3nccc3n2)ncc1C(=O)NC[C@@H](F)C(C)(C)O (some centres unmarked) [Example 387] | 6.53 |  |  |  |
| 8.38 | O=C(NCCN1CCCC1)c1cnc(Nc2ccc3ncsc3c2)cc1NC1CCCC1 [Example 151] | 6.72 |  |  |  |
| 8.32 | CC(C)Nc1cc(Nc2nc3ccnn3cc2F)ncc1C(=O)NC[C@@H](F)C(C)(C)O [Example 367, (R)—N-(2-fluoro-3-hydroxy-3-methylbutyl)-6-((6-fluoropyrazolo[1,5-a]pyrimidin-5-yl)amino)-4-(isopropylamino)nicotinamide] | 6.24 |  |  |  |
| 8.59 | CC(C)(O)c1cnc(Nc2cc(Nc3nc4ccnn4cc3F)ncc2C(=O)NC[C@@H](F)C(C)(C)O)s1 [Example 453] | 6.08 |  |  |  |
| 8.17 | CC(C)(O)[C@H](F)CNC(=O)c1cnc(Nc2ccc3ncsc3c2)cc1N[C@H]1CCC(CCO)C1 (some centres unmarked) [Example 67] |  |  | 6.61 |  |
| 8.09 | Cc1cn2nccc2cc1Nc1cc(NC(C)C)c(C(=O)NC[C@@H](F)C(C)(C)O)cn1 [Example 487] |  |  |  | 6.20 |
| 8.17 | CC(C)Nc1cc(Nc2ccc3ncsc3c2)ncc1C(=O)N[C@H]1CC[C@H](C(=O)NC23CC4CC(CC(O)(C4)C2)C3)CC1 [Example 214] | 6.43 |  |  |  |
| 8.57 | CC(C)Nc1cc(Nc2ccc3ncsc3c2)ncc1C(=O)N[C@H]1CC[C@H](C(=O)NC2CC2)CC1 [Example 227] | 6.86 |  |  |  |
| 8.29 | CC(C)(O)[C@H](F)CNC(=O)c1cnc(Nc2ccc3nccn3n2)cc1NC1CC1 [Example 85] | 6.71 |  |  |  |
| 8.70 | CC(C)(O)[C@H](F)CNC(=O)c1cnc(Nc2nc3scnc3cc2F)cc1NC1CC1 [Example 467] | 6.37 |  |  |  |
| 8.72 | CC(C)(O)[C@H](F)CNC(=O)c1cnc(Nc2nc3ccnn3cc2F)cc1NC1CCC(F)C1 (some centres unmarked) [Example 408] |  |  | 6.68 |  |
| 8.55 | CC(C)(O)[C@H](F)CNC(=O)c1cnc(Nc2ccn3nccc3n2)cc1NC1CCCC1F (some centres unmarked) [Example 245] | 6.41 |  |  |  |
| 8.62 | CCNc1cc(Nc2ccc3ncsc3n2)ncc1C(=O)NC[C@@H](F)C(C)(C)O [Example 311] | 7.09 |  |  |  |
| 9.10 | CC(C)Nc1cc(Nc2nc3scnc3cc2F)ncc1C(=O)NC[C@@H](F)C(C)(C)O [Example 455] | 6.24 |  |  |  |
| 8.70 | CC(C)Nc1cc(Nc2ccc3ncsc3c2)ncc1C(=O)N[C@H]1CC[C@H](C(=O)NC(C)C)CC1 [Example 195] | 6.79 |  |  |  |
| 8.19 | CC(C)(O)[C@H](F)CNC(=O)c1cnc(Nc2ccc3ncsc3c2)cc1Nc1ccc(C(=O)NC2CC2)cc1 [Example 321] | 5.94 |  |  |  |

| pIC50 [2] | SMILES | pIC50 ([1]; Homo sapiens, PBMC, 5 h) | pEC50 [1] | pIC50 [1] | pEC50 ([1]; Homo sapiens, PBMC, 5 h) |
| --- | --- | --- | --- | --- | --- |
| 8.01 | CC(C)(O)[C@H](F)CNC(=O)c1cnc(Nc2ccc3ncsc3c2)cc1N[C@H]1CCCC(O)C1 (stereo partly drawn) [Example 327, 6-(benzo[d]thiazol-6-ylamino)-N—((R)-2-fluoro-3-hydroxy-3-methylbutyl)-4-(3-hydroxycyclohexylamino)nicotinamide] |  |  | 6.00 |  |
| 8.47 | CC(C)Nc1cc(Nc2ccc3ncsc3c2)ncc1C(=O)NCC[C@@H](C)NC(=O)CC1CCOCC1 [Example 189] | 6.52 |  |  |  |
| 8.51 | CCNc1cc(Nc2cc3scnc3cc2F)ncc1C(=O)NC[C@@H](F)C(C)(C)O [Example 516] | 5.92 |  |  |  |
| 8.74 | CC(C)(O)[C@H](F)CNC(=O)c1cnc(Nc2ccc3ncc(C#N)cc3n2)cc1NC1CCCC1(F)F (some centres unmarked) [Example 441] | 7.55 |  |  |  |
| 8.64 | CC(C)(O)[C@H](F)CNC(=O)c1cnc(Nc2ccc3ncc(C(N)=O)cc3n2)cc1NC1CCC1 [Example 444] | 7.26 |  |  |  |
| 8.00 | CC(C)Nc1cc(Nc2cc3ccnn3cc2F)ncc1C(=O)NC[C@@H](F)C(C)(C)O [Example 477] | 6.14 |  |  |  |
| 8.24 | CC(C)(O)[C@H](F)CNC(=O)c1cnc(Nc2ccc3ncsc3c2)cc1NC1CCC(F)C1 (single isomer, unassigned) [Example 365, 6-(benzo[d]thiazol-6-ylamino)-N-(2-fluoro-3-hydroxy-3-methylbutyl)-4-(3-fluorocyclopentylamino)nicotinamide] |  |  | 7.01 |  |
| 8.20 | CC(C)(O)[C@H](F)CNC(=O)c1cnc(Nc2ccc3ncsc3c2)cc1Nc1ccc(S(C)(=O)=O)cc1 [Example 382] | 6.31 |  |  |  |
| 7.92 | CC(C)(O)[C@H](F)CNC(=O)c1cnc(Nc2ncc3ccc(F)cc3n2)cc1NC1CCOCC1 [Example 495] |  |  |  | 6.35 |
| 7.98 | COc1ncnc2ccc(Nc3cc(NC4CC4)c(C(=O)NC[C@@H](F)C(C)(C)O)cn3)cc12 [Example 128] | 6.41 |  |  |  |
| 8.32 | CC(C)Nc1cc(Nc2ccc3ncsc3c2)ncc1C(=O)NC1CCN(C(=O)c2cccnc2)CC1 [Example 219] | 6.35 |  |  |  |
| 8.21 | Cc1cc2nc(Nc3cc(NC4CCC(F)C4)c(C(=O)NC[C@@H](F)C(C)(C)O)cn3)ccn2n1 (some centres unmarked) [Example 268] |  |  | 6.42 |  |
| 8.07 | CC(C)(O)[C@H](F)CNC(=O)c1cnc(Nc2ccc3ncsc3c2)cc1N[C@H](CO)c1ccccc1 [Example 63] | 6.20 |  |  |  |
| 8.19 | CNC(=O)[C@H]1CC[C@H](NC(=O)c2cnc(Nc3ccc4ncsc4c3)cc2NCC(F)(F)F)CC1 [Example 506] | 6.49 |  |  |  |
| 8.70 | CC(C)(O)[C@H](F)CNC(=O)c1cnc(Nc2ccc3ncc(F)cc3n2)cc1NC1CCOCC1 [Example 428] | 7.28 |  |  |  |
| 8.16 | CC(C)Nc1cc(Nc2ccc3ncsc3c2)ncc1C(=O)NCC[C@@H](C)NC(=O)N1CCCC1 [Example 212] | 6.15 |  |  |  |
| 8.20 | CC(C)(O)[C@H](F)CNC(=O)c1cnc(Nc2ccc3ncc(C#N)cc3n2)cc1NC1CCC(F)C1 (some centres unmarked) [Example 413] |  |  | 6.65 |  |
| 8.42 | CC(C)(O)[C@H](F)CNC(=O)c1cnc(Nc2ncc3ncccc3n2)cc1N[C@H]1CCC[C@@H]1F [Example 445] | 6.97 |  |  |  |
| 8.51 | CC(C)(O)[C@H](F)CNC(=O)c1cnc(Nc2nc3scnc3cc2F)cc1NC1CCOCC1F (some centres unmarked) [Example 469] | 6.32 |  |  |  |
| 8.47 | CC(C)Nc1cc(Nc2ccc3ncsc3c2)ncc1C(=O)N[C@H]1CC[C@H](N)CC1 [Example 203] | 6.51 |  |  |  |
| 8.51 | CC(C)Nc1cc(Nc2ccc3ncncc3c2)ncc1C(=O)NC[C@@H](F)C(C)(C)O [Example 48] | 6.29 |  |  |  |
| 8.51 | CC(C)(O)[C@H](F)CNC(=O)c1cnc(Nc2ccc3ncsc3c2)cc1NC12CCC(NC(=O)c3ccncc3)(CC1)C2 [Example 399] | 6.69 |  |  |  |
| 8.21 | CC(C)Nc1cc(Nc2ccc3ncsc3c2)ncc1C(=O)NCC[C@@H](C)NC(=O)CN(C)C [Example 192] | 6.58 |  |  |  |
| 7.90 | CC(C)(O)[C@H](F)CNC(=O)c1cnc(Nc2ccc3ncsc3c2)cc1NC12CCC(NS(=O)(=O)c3ccccc3)(CC1)C2 [Example 401] | 6.48 |  |  |  |
| 7.89 | CCCNC(=O)c1ccc(Nc2cc(Nc3ccc4ncsc4c3)ncc2C(=O)NC[C@@H](F)C(C)(C)O)cc1 [Example 326] | 6.36 |  |  |  |

| SMILES | pIC50 [2] | pIC50 ([1]; Homo sapiens, PBMC, 5 h) | pEC50 [1] | pIC50 [1] | pEC50 ([1]; Homo sapiens, PBMC, 5 h) |
| --- | --- | --- | --- | --- | --- |
| CC(C)(O)C(F)CNC(=O)c1cnc(Nc2ccc3ncsc3c2)cc1NC1CC(C(F)F)C1 (centres unmarked) [Example 361, 4-(3-(difluoromethyl)cyclobutylamino)-6-(3a,27a-dihydrobenzo[d]thiazol-6-ylamino)-N-(2-fluoro-3-hydroxy-3-methylbutyl)nicotinamide] | 8.16 |  |  | 6.75 |  |

Reference: patent publication US9546153B2, “Bicyclic heterocycle substituted pyridyl compounds useful as kinase modulators” (BRISTOL-MYERS SQUIBB COMPANY, priority 2012, dated 2017)
